Measured values published in US12090225B2 (Avalyn Pharma Inc., priority 2018, dated 2024).
Where a name gives a salt, the structure may show the parent alone.

What was measured:
[1] = Inhaled pharmacokinetics of nintedanib salt forms (intratracheal); assay type: in vivo, C57BL/6 mice; details: female, C57BL/6, mouse, lung, inhaled or intranasal, 1 mg/kg, 1 mg/kg (base equivalent) IT, mice; read-out: lung half-life
[2] = Feasibility assessment of ready-to-use nintedanib HBr, HCl and esylate formulations; assay type: physicochemical; details: NaCl at 10 mM; by itself
[3] = 7 day stability testing of salts (40° C./75% RH, 80° C., ambient light; HPLC purity, XRPD); assay type: physicochemical; details: listed as HCl salt
Method: High Performance Liquid Chromatography-Ultraviolet Detection (HPLC-UV): Instrument: Dionex Ultimate 3000; Column: Acquity CSH C18 100 mm×2.1 mm 1.7 μm; Column Temperature: 50° C.; Autosampler Temperature: Ambient; UV wavelength: 210 nm; Injection Volume: 4 μL; Flow Rate: 0.6 mL/min; Mobile Phase A: 0.1% formic acid in water; Mobile Phase B: 0.1% formic acid in acetonitrile. The HPLC method used the gradient in Table 2.
FT-IR appeared to be consistent with the structure. […] The material was physically stable to changes in temperature and humidity when stored for one week.
A new, poorly crystalline pattern was produced when stored at 40° C./75% RH—Pattern 4.
Purity of these materials remained unchanged (as shown in Table) apart from the sample stored at ambient light, where a 0.5% drop in purity was observed.

[4] = HBr and HCl salts-filter compatibility study; assay type: physicochemical; details: for visual appearance after filtration: 3% PG solution, glass vials, ambient room condition; for Visual appearance: listed as Nintedanib HCl Salt
Method: HBr and HCl salts-filter compatibility study: this study was conducted to assess the compatibility of the HBr and the HCl salts with various membrane filters. […] The glass vials were stored at ambient room condition and visual appearance was periodically inspected.

[5] = Disproportionation/hydration studies (pH, XRPD pattern); assay type: physicochemical; details: for pH Pre-Agitation: listed as HCl salt
Source text: No XRPD data could be compiled on the hydration or disproportionation of the salt due to the high solubility in water and acetone/water mixtures.
The salt only remained Pattern 1 at 0.3 aw. New patterns 6 and 7 are likely hydrated due to the high water activity conditions for production.

[6] = 0.5 mg/mL solubility assessment (filtered/unfiltered); assay type: physicochemical; details: 0.5 mg/mL experiment; for pH: listed as HCl
[7] = Pattern stability screen of potential salts (40° C./75% RH, XRPD); assay type: physicochemical
Method: XRPD analysis was carried out on a PANalytical X'pert pro, scanning the samples between 3 and 35° 20. The material was gently compressed and loaded onto a multi-well plate with Kapton or Mylar polymer film to support the sample.
Primary Salt Screening. […] The solvent systems shown in Table were selected for salt screening. For sulfonic acids MEK was used instead of methanol and acetone:water 50:50 (v/v) was used instead of IPA:water to avoid any potential genotoxic impurities. Ca. […] If the acid was insoluble in the selected solvent, a slurry was used. If the acid was a liquid it was added to the API slurry from a stock solution in the allocated solvent. The mixtures of API/counterion/solvent were temperature cycled between ambient and 40° C. in 4 hour cycles for ca. 3 days. Any solids present were isolated and allowed to dry at ambient conditions, for ca. 30 minutes prior to analysis by XRPD. Where solutions were obtained they were evaporated to obtain solid material.

[8] = Dynamic Vapour Sorption (DVS) hygroscopicity; assay type: physicochemical; details: for DVS mass uptake at 90% RH: 25° C., uptake from input material; for Hygroscopicity: DVS
Method: Dynamic Vapour Sorption (DVS). Approximately, 10 mg of sample was placed into a mesh vapour sorption balance pan and loaded into a DVS-1 or DVS Advantage dynamic vapour sorption balance by Surface Measurement Systems. The sample was subjected to a ramping profile from 40-90% relative humidity (RH) at 10% increments, maintaining the sample at each step until a stable weight had been achieved (dm/dt 0.004%, minimum step length 30 minutes, maximum step length 500 minutes) at 25° C. After completion of the sorption cycle, the sample was dried using the same procedure to 0% RH and then a second sorption cycle back to 40% RH. Two cycles were performed. The weight change during the sorption/desorption cycles were plotted, allowing for the hygroscopic nature of the sample to be determined. XRPD analysis was then carried out on any solid retained.

Water pH titration = assay type: physicochemical; details: 2 mg/mL Nintedanib slurry HCl sample
[9] = Solid state and chemical stability of nintedanib HBr and HCl salts through 6 months; assay type: physicochemical; details: for Weight loss: TGA/DSC
Source text: Table 24 and Table 25 summarize the total impurities (by HPLC), polymorphic form (by X-ray powder diffraction) and, where applicable, weight loss (by TGA/DSC) for both the HCl and HBr salt forms. […] There were no changes in polymorphic form for both salt forms stored at 25 C/60% RH condition.

[10] = Citrate buffer formulation; assay type: physicochemical
[11] = Aqueous solubility assessment of salts; assay type: physicochemical
[12] = Water Activity 0.3 (acetone/water)
[13] = Water Activity 0.6 (acetone/water)
[14] = Water Activity 0.9 (acetone/water)
[15] = 40° C./75% RH, 2 months, listed as Nintedanib HCl salt
[16] = 40° C./75% RH, 6 months, listed as Nintedanib HCl salt
[17] = 0.5 mg/mL citrate buffer experiments, listed as HCl

SMILES: COC(=O)c1ccc2c(c1)NC(=O)/C2=C(\Nc1ccc(N(C)C(=O)CN2CCN(C)CC2)cc1)c1ccccc1 [Nintedanib HCl]
- half-life [1]: ~4 min
- compatibility with NaCl [2]: not compatible
- XRPD pattern after 7 day stability testing ([3]; 40° C./75% RH, 80° C. and ambient light (all conditions)): remain pattern 1
- Purity (%) ([3]; 40° C./75% RH, 7 day stability testing): 99.9%
- Purity (%) ([3]; 80° C., 7 day stability testing): 99.9%
- Purity (%) ([3]; Ambient, 7 day stability testing): 99.9%
- Purity (%) ([3]; Input): 99.9%
- visual appearance after filtration ([4]; 0.22 μm PES filter): light precipitation after 2 weeks
- visual appearance after filtration ([4]; 0.22 μm PVDF filter): precipitated shortly after filtration
- visual appearance after filtration ([4]; 0.22 μm nylon filter): no change in appearance through 1 month
- Visual appearance ([4]; PTFE filter, 1 month): Precipitation
- Visual appearance ([4]; PTFE filter, 1 week): Precipitation
- Visual appearance ([4]; PTFE filter, 2 weeks): Precipitation
- Visual appearance ([4]; PVFD filter, 1 month): Precipitation
- Visual appearance ([4]; PVFD filter, 1 week): Precipitation
- Visual appearance ([4]; PVFD filter, 2 weeks): Precipitation
- Visual appearance ([4]; PVFD filter, Initial): Precipitation
- pH Post-Agitation [5, 12]: 2.45
- pH Pre-Agitation [5, 12]: 1.94
- pH Post-Agitation [5, 13]: 2.33
- pH Pre-Agitation [5, 13]: 2.32
- pH Post-Agitation [5, 14]: 2.24
- pH Pre-Agitation [5, 14]: 1.89
- pH Post-Agitation ([5]; Water Activity 1.0 (water)): 2.33
- pH Pre-Agitation ([5]; Water Activity 1.0 (water)): 2.05
- concentration for filtered sample compared to unfiltered ([6]; listed as HCl salt): 99%
- pH ([6]; Filtered): 5.36
- pH ([6]; Unfiltered): 5.28
- XRPD pattern after 72 hrs 40° C./75% RH ([7]; Initial pattern 1): 1
- XRPD pattern after 72 hrs 40° C./75% RH ([7]; Initial pattern 2): 2
- XRPD pattern after 72 hrs 40° C./75% RH ([7]; Initial pattern 3, listed as HCl): 1
- DVS mass uptake at 90% RH ([8]; listed as HCl): further 2.2% uptake up
- DVS mass uptake at 90% RH ([8]; listed as HCl salt): ca. 2.2%
- Hygroscopicity ([8]; listed as HCl): Hygroscopic
- Hygroscopicity ([8]; listed as HCl salt): hygroscopic
- Post-DVS XRPD pattern ([8]; listed as HCl): Pattern unchanged
- Post-DVS XRPD pattern ([8]; listed as HCl salt): remain unchanged
- pH upon cooling (Water pH titration): 4.76
- concentration of the filtered sample (Water pH titration; by HPLC): 1700 µg/mL
- Total impurities ([9]; 25° C./60 % RH, 1 week, listed as Nintedanib HCl salt): 0.41%
- Total impurities ([9]; 25° C./60 % RH, 2 months, listed as Nintedanib HCl salt): 0.36%
- Total impurities ([9]; 25° C./60 % RH, 4 weeks, listed as Nintedanib HCl salt): 0.36%
- Total impurities ([9]; 25° C./60 % RH, 6 months, listed as Nintedanib HCl salt): 0.46%
- Total impurities ([9]; 25° C./60 % RH, Initial): 0.29%
- Weight loss ([9]; 25° C./60 % RH, Initial, listed as Nintedanib HCl salt): 0.82%
- Polymorphic form ([9]; 40° C./75% RH, 1 week): Pattern 1
- Total impurities ([9]; 40° C./75% RH, 1 week, listed as Nintedanib HCl salt): 0.39%
- Polymorphic form [9, 15]: Pattern 1
- Total impurities [9, 15]: 0.37%
- Total impurities ([9]; 40° C./75% RH, 4 weeks): 0.34%
- Polymorphic form ([9]; 40° C./75% RH, 4 weeks, listed as Nintedanib HCl salt): Pattern 1
- Polymorphic form [9, 16]: Pattern 1
- Total impurities [9, 16]: 0.52%
- Polymorphic form ([9]; 40° C./75% RH, Initial): Pattern 1
- Total impurities ([9]; 40° C./75% RH, Initial): 0.29%
- Weight loss ([9]; 40° C./75% RH, Initial, listed as Nintedanib HCl salt): 0.82%
- Initial pH [10, 17]: 4.84
- pH 1 h [10, 17]: 4.80
- attempt to solubilize in citrate buffer ([10]; pH 4.75 citrate buffer, ~1.7 mg/mL (Nintedanib)): unsuccessful
- pH at 6 h ([11]; salt in water, after agitation): 2.26
- pH at 18 h ([11]; salt in water, after agitation): 2.08
- Initial pH ([11]; salt in water, solubility assessment): 2.22
- solubility ([11]; thermodynamic from solid, deionized water added to 20 mg of salt, read-out: solubility in water): ~11 mg/mL
